Source: patent publication US11439624B2, “Promoting sleep using AT1 receptor blockers” (UNIVERSITY OF PITTSBURGH—OF THE COMMONWEALTH SYSTEM OF …, priority 2012, dated 2022)

Assays:
[1] = system: rats in the stress-induced insomnia model; assay: stress-induced insomnia model in rats (cage exchange; EEG and EMG recording); format: in vivo, rat; conditions: for average of REM sleep / average of nREM sleep / average of wakefulness along the entire experiment: aprox. 6 hours after cage exchange and drug injection; for average of REM sleep: vehicle 2%; for average of nREM sleep: vehicle 45%; for average of wakefulness along the entire experiment: vehicle 52%; for REM sleep (range depending on the hour): vehicle 0-4%; for sleep latency: stressed (cage exchanged) rats, i.p. just prior to transfer to soiled cage, candesartan 1 or 5 mg/kg, azilsartan 0.5 mg/kg, vehicle 68±10 minutes; for abnormal wave components in the EEG (power spectrum analysis): treated rats in the insomnia model
Procedure: Rats in the stress-induced insomnia model (25) were treated with candesartan intraperitoneally (i.p.; 1 mg/kg or 5 mg/kg). In the model, insomnia is induced by transferring male rats at the peak of their normal sleep cycle into a soiled cage previously occupied during one week by another male rat. This simple procedure induces a psychological or social stress response in the rats, which are very territorial animals. The sequence of sleep disturbances in cage exchanged rats is similar to that observed in humans with primary insomnia. In rats, there is an initial delay in sleep onset and increased wakefulness that resemble the difficulties falling asleep at the beginning of the night, or initial insomnia, observed in humans after a stressful day. Eventually, insomniacs fall asleep because of the sleep pressure, as rats do. But later, as the night progresses, they usually experience insomnia characterized by decreased nREM sleep, frequent awakenings, and poor quality sleep, similar to what we observed in the stressed rats. Candesartan was injected i.p. just prior to transferring the rats (n=7 for the 1 mg/kg treatment and n=4 for the 5 mg/kg treatment) to the soiled cage. EEG and EMG activity were recorded continuously to determine the behavioral state (wake, nREM or REM sleep) along several hours. Control rats (n=6) were injected with vehicle and also placed in a soiled cage and recorded. […] REM sleep is increased to 6-12% (depending on the hour) compared with vehicle treated rats (0-4%). In an additional study, Azilsartan was tested using the same stress-induced insomnia model in rats as was used in Example 1. Azilsartan, which mainly acts as an inverse agonist of AT1 receptors, has been reported to have a potent effect in the treatment of hypertension at a single daily dose compared to twice-a-day doses commonly used for other AT1 receptor blockers. For this reason, we used a lower dose of azilsartan (0.5 mg/kg) than the dose used for candesartan. Azilsartan was injected i.p. just prior to transferring the rats (n=4) to the soiled cage. EEG and EMG activity were recorded continuously to determine the behavioral state (wake, nREM or REM sleep) along several hours, as explained above.

[2] = system: humans treated for hypertension; conditions: cited from earlier work
[3] = candesartan 1 or 5 mg/kg i.p., azilsartan 0.5 mg/kg i.p.

SMILES | more sleep in the last two hours of the experiment compared to candesartan-treated rats ([1]; 4 hours after injection of the drug, azilsartan 0.5 mg/kg i.p.) | average of REM sleep [1] | average of nREM sleep [1] | average of wakefulness along the entire experiment [1] | percentage of nREM sleep (range depending on the hour) ([1]; azilsartan 0.5 mg/kg i.p.) | REM sleep (range depending on the hour) [1, 3] | sleep latency [1] | abnormal wave components in the EEG (power spectrum analysis) [1] | effect on sleep disturbances induced by stress ([1]; validated rat model of stress-induced insomnia) | duration of effect compared with other AT1 receptor blockers [2] | nREM sleep increase compared with vehicle treated rats (depending on the hour) ([1]; candesartan 1 or 5 mg/kg i.p.)
CCOc1nc2cccc(C(=O)O)c2n1Cc1ccc(-c2ccccc2-c2noc(=O)[nH]2)cc1 [azilsartan] | 20% | 10% | 68% | 22% | 50-82% | 3-15% | 60 ± 3 min | does not seem to induce abnormal wave components in the EEG | ameliorate sleep disturbances induced by stress | longer-lasting effect than other AT1 receptor blockers | 
CCOc1nc2cccc(C(=O)O)c2n1Cc1ccc(-c2ccccc2-c2nnn[nH]2)cc1 [candesartan] |  | 7.5% | 57% | 35% |  | 6-12% | 38 ± 3 min | does not induce abnormal wave components in the EEG |  |  | 20-40%
